In series [1] the test system is human CD133+ hematopoietic stem cells (hHSCs). The series can be described thus: real-time PCR of erythroid marker mRNA in cultured hHSCs during erythropoietic differentiation. The class given is cell-based. The protocol: (§1) CD133^+ stem cells were isolated from human umbilical cord blood by magnetic microbead selection using Direct […] progenitor isolation beads (Miltenyi Biotech, Bergisch Gladbach, Germany) and MACS LS-columns (Miltenyi Biotech), and were subsequently cultured. In stage I, 10^5 CD133^+ cells were cultured in 10 ml of EDM (10^4 cells/ml), containing human stem cell factor (SCF, 50 ng/ml), human EPO (6 IU/ml), human interleukin (IL)-3 (10 ng/ml), human vascular endothelial growth factor (VEGF, 10 ng/ml), and human insulin-like growth factor (IGF)-II (250 ng/ml) for 6 days. In stage II, cells were cultured in 10 ml of EDM (3×10^4 cells/ml) in the presence of SCF (50 ng/ml) and EPO (6 IU/ml) for 4 days. In stage III, cells were cultured in 10 ml of EDM (5×10^4 cells/ml) in the presence of SCF (50 ng/ml) and EPO (2 IU/ml) for 6 days. Cultured cells respectively underwent 30-, 20-, and 10-fold expansions in stages I, II, and III. All cell cultures were incubated at 37° C. in 5% CO2 under humidified conditions. LPA (Sigma) was prepared in chloroform and methanol (1:9) and stored at −20° C. LPA was added to serum-free medium with 0.005% fatty acid-free BSA as a carrier.
(§2) Ki16425 (Cayman Chemical, Ann Arbor, Mich., USA) powder was diluted in dimethyl sulfoxide (DMSO) at a concentration of 40 mM as the stock. At the ends of stages I and II, HSCs were pretreated with Ki16425 in serum-free medium for 1 h. Then, cells were cultured in media of stages II and III containing Ki16425 at a final concentration of 20 μM. Quercetin (Sigma) was dissolved in DMSO at 100 mM as the stock and stored at −20° C. Quercetin was diluted into each final concentration by culture media for treatment.
Total RNA extraction was isolated using Trizol Reagent (Invitrogen, Carlsbad, Calif., USA). Complementary (c)DNA was synthesized from 1 μg total RNA with a reverse-transcription polymerase chain reaction (RT-PCR). Primer sequences were:
A real-time PCR with the mixture reagent SYBR®-Green I (Thermo Scientific, San Diego, Calif., USA) was carried out on an iCycler iQ™ real-time detection system (Bio-Rad, Hercules, Calif., USA). The specificity of the primers was confirmed from a single peak of the melting curve. Each target mRNA level was evaluated from the real-time threshold cycle and compared to the GAPDH amount as an internal control.

The test system is the same in series [2]. The series can be described thus: flow cytometry of CD71 and GlyA protein on cultured hHSCs. The series is classed as cell-based. The conditions noted are these: end of stage II induction. The protocol:
as §1, §2
HSC cultures were collected, washed, and stained either with anti-GlyA-PE and anti-CD71-PE/Cy5 for 30 minutes (BD Biosciences Pharmingen, San Diego, Calif., USA). Stained cells were washed and resuspended in PBS. Non-stained and single-stained samples were prepared for fluorescent compensation. […]

The test system is the same in series [3]. The series can be described thus: expansion and differentiation of hHSC-derived erythroid cells in culture. Particulars: LPA present, EPO-free, data not shown. The class given is cell-based. The protocol:
as §1
Ki16425 (Cayman Chemical, Ann Arbor, Mich., USA) powder was diluted in dimethyl sulfoxide (DMSO) at a concentration of 40 mM as the stock. […]

In a further series the test system is zLPA3. The series can be described thus: o-dianisidine blood cell staining of zLPA3 morpholino-injected zebrafish embryos. The class given is in vivo, zebrafish (Danio rerio). Particulars: for percentages of erythrocyte-defective embryos compared to control embryos: 48 hpf and 60 hpf; for effect of LPA3 knockdown on erythrocyte formation (o-dianisidine staining; normal, moderate, severe): injected at one-cell stage, 0, 2.5 and 5 ng, 48 hpf. The protocol:
Wild-type zebrafish (Danio rerio) obtained from the Zebrafish Information Research Center (Eugene, Oreg., USA) were inbred at 27-28° C. Embryos were collected from natural spawning, washed, and incubated in 0.3× Danieau's buffer at 28° C. until being used. Each stage of fish embryos was determined from their morphology. Embryos at 12 hour post-fertilization (hpf) were treated with 0.2 mM 1-phenyl-2-thiourea (PTU) (Sigma, St. Louis, Mo., USA) in 0.3× Danieau's buffer to suppress melanization. Dechorionation of embryos was carried out with 0.01 g/ml protease (Sigma).
Glass capillary tubes were pulled by a horizontal puller (P-97, Sutter Instrument, Navato, Calif., USA). Two zLPA3 translation-blocking (t)MOs (Gene Tools, Philomath, Oreg., USA) were utilized as follows:
tMO1: 5′-[…]-3′ (−27 to −3) (SEQ ID No. 1); and
tMO2: 5′-[…]-3′ (+1 to +23) (SEQ ID No. 2).
The MOs were prepared at 1 mM in sterile H2O as a stock solution, and further diluted into desired working concentrations in 1× Danieau's buffer with 0.5% phenol red. Fish embryos were fixed on 1% injection agar plates, and 2.3 nl of solution was injected into the yolk sac and blastodisc interface with a nanoliter injector (World Precision Instruments, Sarasota, Fla., USA). The injected embryos were incubated in 0.3× Danieau's buffer at 28.5° C. for further experiments.
Embryos from designated stages were incubated in freshly prepared o-dianisidine solution (40% ethanol, 0.01 M sodium acetate, 0.65% H2O2, and 0.6 mg/ml o-dianisidine [Sigma]) for 15 minutes in the dark.

Setting [4] is: stage II, 24-hour LPA 18:1 (1~10 μM), plasma-free medium, concentration-dependent.

Four molecules from patent US9034820B2, “Method and composition for modulating erythropoiesis” (priority 2011, dated 2015) can be followed below.

“Also recorded” adds a separate entry of the source.

With `CCCCCCCC/C=C\CCCCCCCC(=O)OCC(O)COP(=O)(O)O` (stereo not drawn) [LPA, (2-hydroxy-3-phosphonooxypropyl) (Z)-octadec-9-enoate], in series [1] (setting [4]), the “mRNA level of CD71” value is “increased; also recorded: elevated”, the “mRNA level of GATA-1” value is “elevated” and the “mRNA level of GlyA” value is listed as “elevated”. Also, in series [2] (5 and 10 μM LPA, 4 days), the “protein expression level of CD71” value was “higher levels” and the “protein expression level of GlyA” value is recorded as “not GlyA”. Moreover, the “differentiation of erythroid cells in the absence of EPO” value in series [3] was “severely decreased”.

For `O=c1c(O)c(-c2ccc(O)c(O)c2)oc2cc(O)cc(O)c12` [quercetin], the “increase in CD71 mRNA under LPA induction” value in series [1] (quercetin 5, 20 and 50 μM) is given as “suppressed; also recorded: inhibited”. Besides, the “LPA-induced protein expression of CD71” value in series [2] (quercetin (20 μM)) is reported as “decreased; also recorded: suppressed”.

On to “tMO1: zLPA3 translation-blocking morpholino 5′-CACTGTCCTAGTGGGTTTTGTCCAA-3′ (SEQ ID No. 1) (all phosphorodiamidate morpholino (PMO))”, for which, in the series on zLPA3, the “percentages of erythrocyte-defective embryos compared to control embryos” value is listed as “significantly higher” and the “effect of LPA3 knockdown on erythrocyte formation (o-dianisidine staining; normal, moderate, severe)” value was “dose-dependent effect”.

On to “tMO2: zLPA3 translation-blocking morpholino 5′-ATGGCCAGGCACAACATCTGCTA-3′ (SEQ ID No. 2) (all phosphorodiamidate morpholino (PMO))”, for which, in the series on zLPA3, the “percentages of erythrocyte-defective embryos compared to control embryos” value is listed as “significantly higher” and the “effect of LPA3 knockdown on erythrocyte formation (o-dianisidine staining; normal, moderate, severe)” value is on record as “dose-dependent effect”.
